pIC50: −log10 of the molar value. Read-outs that look alike come from different tables or passages of the source. Ends that are not written are not given here. Peptide text beside a SMILES is read from it.
Columns and labels:
[1] = system: methicillin‐resistant Staphylococcus aureus (MRSA); settings: read-out: IC50 antimicrobial (planktonic); MRSA in 10% tryptic soy broth + 0.1% glucose, overnight 37°C, growth by OD600; peptide array samples; nplr fit
Description: (§1) Peptide arrays on cellulose membranes were made by Kinexus Bioinformatics Corporation (Vancouver, BC, Canada) and were obtained as cleaved free peptide associated with the punched‐out spot of the cellulose membrane. Stock solutions of the peptide array samples were prepared by dissolving the free peptide in 200 µL of endotoxin‐free sterile water, incubating at room temperature for ~ 1 h, and then transferring the resulting peptide solution to a sterile microfuge tube for subsequent antimicrobial activity assays. The concentration of the stock peptide array samples was determined by measuring the absorbance at 280 nm of the solution (in duplicate) on a BioTek Epoch Microplate Spectrophotometer using the Take3TM Multi‐Volume Plate. A theoretical extinction coefficient of each peptide was determined based on the number of Trp and Try residues1 in the peptide sequence according to the formula: (#Trp) × 5500 M^− ^1 cm^− ^1 + (#Tyr) × 1490 M^− ^1 cm^− ^1, and the concentration of the peptide in solution was calculated according to the Beer–Lambert law. Any Cys residues within the peptide samples were assumed not to be present in a disulfide bond, so their contribution to the extinction coefficient at 280 nm was ignored.
(§2) Peptides were synthesized on peptide arrays and tested as described previously. Briefly, the antimicrobial activity and biofilm inhibition activity of the peptide array samples were assessed against methicillin‐resistant Staphylococcus aureus (MRSA). Briefly, twofold serial dilutions of the peptide array sample (10 μL final volume) were prepared in 96‐well plates and then 90 μL of a 1:100 dilution of an overnight culture of MRSA diluted in 10% tryptic soy broth supplemented with 0.1% glucose was added to each well and the plates were incubated overnight at 37°C. The following day, bacterial growth was quantified by measuring the optical density at 600 nm (OD600) of each sample well while the amount of biofilm was quantified by rinsing the wells of the plate with distilled water and staining the adhered biomass with 0.1% crystal violet solution. The amount of adhered biomass was quantified by recording the absorbance at 595 nm (A595). Dose–response curves were drawn for each peptide based on the bacterial growth (OD600) or biofilm inhibition (A595) and normalizing the percent of peptide inhibition relative to untreated bacteria (100% growth) or sterile media (0% growth). The concentration of peptide required to inhibit 50% of bacterial or biofilm growth (IC50) was calculated by nonlinear regression fit of the dose–response curves using the N‐Parameter Logistic Regression (nplr) package.

[2] = system: methicillin‐resistant Staphylococcus aureus (MRSA) biofilm; settings: read-out: IC50 Biofilm; MRSA in 10% tryptic soy broth + 0.1% glucose, overnight 37°C, adhered biomass stained with 0.1% crystal violet, A595; peptide array samples; nplr fit
Description: as §1, §2

[3] = system: human red blood cells; experiment: Hemolysis assay; assay type: cell-based
From the text: (§3) To evaluate the safety profiles of predicted peptides, we conducted hemolysis and PBMC cytotoxicity assays on three representative candidates (J20: LKIKVHIYRMKR, J28: FRVCYRGICYRR, J39: […]). These peptides were randomly selected from the top 22 peptides predicted by our classification model to outperform the reference peptide IDR‐1018 in antibiofilm activity. All three peptides were synthesized at > 95% purity and tested in standard in vitro assays.

[4] = system: human PBMCs; experiment: PBMC cytotoxicity assay; assay type: cell-based
From the text: as §3

[5] = system: biofilm; experiment: Minimum biofilm inhibitory concentration (MBIC); assay type: cell-based; settings: peptides > 95% purity; Table S1

Compound | pIC50 [1] | pIC50 [2] | further results
GLKSFARVLKKI-NH2 [compound 33] | 5.94 | – | –
RARGRKRLVVTI-NH2 [compound 40] | – | 6.52 | –
LKIKVHIYRMKR-NH2 [compound 20] | – | 6.46 | Hemolysis IC50 ([3]; red cells of human): > 250 µg/mL; PBMC IC50 (cytotoxicity) [4]: 166.1 µg/mL; Biofilm-inhibitory concentration (MBIC) [5]: 1 to 4 µg/mL
RRRAKGRIRLIV-NH2 [compound 62] | 6.05 | – | –
RGFVRLKKWFNI-NH2 [compound 39] | – | 6.64 | Hemolysis IC50 ([3]; human erythrocytes, concentration range 1–256 μg/mL, peptides > 95% purity): > 250 µg/mL; PBMC IC50 (cytotoxicity) ([4]; human PBMCs, peptides > 95% purity): > 250 µg/mL; Biofilm-inhibitory concentration (MBIC) [5]: 1 to 4 µg/mL
RALKKIIKRLCR-NH2 [compound 86] | 6.15 | 6.42 | –
WKKKGRMRWKWI-NH2 [compound 10] | – | 6.57 | –
KLVRRKGRLYVI-NH2 [compound 50] | – | 6.40 | –
VRLIVAVRIWRR-NH2 [IDR‐1018, reference compound] | 5.76 | 5.85 | –
RVVRRKGRIYIL-NH2 [compound 81] | – | 6.36 | –
RLHGFLIRMRTR-NH2 [compound 44] | 5.92 | – | –
CC[C@H](C)[C@H](NC(=O)CNC(=O)[C@H](CCCNC(=N)N)NC(=O)[C@H](Cc1ccc(O)cc1)NC(=O)[C@H](CS)NC(=O)[C@@H](NC(=O)[C@H](CCCNC(=N)N)NC(=O)[C@@H](N)Cc1ccccc1)C(C)C)C(=O)N[C@@H](CS)C(=O)N[C@@H](Cc1ccc(O)cc1)C(=O)N[C@@H](CCCNC(=N)N)C(=O)N[C@@H](CCCNC(=N)N)C(N)=O [compound 28] (H-FRVCYRGICYRR-NH2; N-terminus assumed) | – | – | Hemolysis IC50 ([3]; red cells of human): > 250 µg/mL; PBMC IC50 (cytotoxicity) [4]: > 250 µg/mL
LFKFLGKKVLKT-NH2 [compound 9] | – | 6.33 | –
